Source: patent US20210038563A1, “NEW SPIRONOLACTONE FORMULATIONS AND THEIR USE” (Apidel SA, priority 2018, published 2021)
pIC50: −log10 of the molar value.

Tests used:
[1] = target: mineralocorticoid receptor; conditions: Sutanto et al. [20]; read-out: half maximal inhibitory concentrations (IC50); cited from earlier work
MR = conditions: Corvol et al. [19]; cited from earlier work
[2] = [26, 27]; cited from earlier work
[3] = test system: dexamethasone-induced delayed corneal wound healing; test: Corneal re-epithelialization evaluation (fluorescein test) after corneal de-epithelialization; format: in vivo, New Zealand white rabbit; conditions: Day 4; mean ± SD
Protocol: Fifty male albino New Zealand rabbits weighing approximately 2.3-3.0 kg were included for this study (Iris Pharma, France). Animals were housed individually in standard cages, under identical environmental conditions. The temperature was kept at 15-21° C. and the relative humidity was >45%. Rooms were continuously ventilated (>15 air volumes per hour). Temperature and relative humidity were continuously controlled and recorded. Animals were routinely exposed (in-cage) to a 10-200 1× light in a 12-hour light/dark cycle (from 7:00 a.m. to 7:00 p.m.). Animals had enrichment and free access to food (150 g/day) and were allowed water ad libitum. All animals were healthy and free of clinically observable ocular abnormalities throughout the study. […]
The animals were anesthetized by an intramuscular injection of a ketamine-xylazine mixture. […] De-epithelialization was monitored by fluorescein staining. […]
The size of the corneal wound was evaluated using the fluorescein test immediately after ocular debridement and once a day before the first instillation of the day. A baseline was recorded before the de-epithelialization. […] Images of the corneal lesion (area stained by fluorescein) were taken using a CCD camera and analyzed using image J software. […]

SMILES: C[C@]12CCC(=O)C=C1C=C[C@@H]1[C@@H]2CC[C@@]2(C)[C@H]1CC[C@@]2(O)CCC(=O)O [CANK, potassium canrenoate]
- pIC50 [1]: < 6.00
- Affinity for the MR (MR): very low affinity

SMILES: CC(=O)S[C@@H]1CC2=CC(=O)CC[C@]2(C)[C@H]2CC[C@@]3(C)[C@@H](CC[C@@]34CCC(=O)O4)[C@H]12 [SPL, 7α-Acetylthio-17α-hydroxy-3-oxopregn-4-ene-21-carboxylic acid γ-lactone]
- plasma half-life [2]: 1.4 h

SMILES: CS[C@@H]1CC2=CC(=O)CC[C@]2(C)[C@H]2CC[C@@]3(C)[C@@H](CC[C@@]34CCC(=O)O4)[C@H]12 [TMSPL, 7α-thiomethylspironolactone]
- plasma half-life [2]: 13.8 h

SMILES: C[C@@H]1C[C@H]2[C@@H]3CCC4=CC(=O)C=C[C@]4(C)[C@@]3(F)[C@@H](O)C[C@]2(C)[C@@]1(O)C(=O)CO [DXM, Dexamethasone]
- Mean percentage of re-epithelialization [3]: 84.6±13.9%

SMILES: C[C@]12CCC(=O)C=C1C=C[C@@H]1[C@@H]2CC[C@@]2(C)[C@H]1CC[C@@]21CCC(=O)O1 [CAN, Canrenone]
- Affinity for the MR, fold lower as compared to SPL (MR): 10 fold
